Assay results: patent US4280001A, “Biologically pure culture” (priority 1976, dated 1981)
Bridge positions count the residues as written; N and C are the ends. Square brackets hold non-standard residues; d marks the D form. Peptide text beside a SMILES is read from it. * marks the point of attachment. Ileψ(thiazoline)Cys = CC[C@H](C)[C@H](N)C1=N[C@H](C(=O)*)CS1; dOrn = NCCC[C@@H](N)C(=O)O

Tests used:
Type in all cases: cell-based
[1] = system: Staphylococcus aureus ATCC 6538 resistant to bacitracin; assay: microbe, parasite or virus in culture; conditions: ATCC6538
Text: (§1) The new antibiotic substance is active also against microorganism strains which are resistant to other commonly used antibiotics.

[2] = system: Staphylococcus aureus ATCC 6538 resistant to cephaloridine; assay: microbe, parasite or virus in culture; conditions: ATCC6538
Text: as §1

[3] = system: Staphylococcus aureus ATCC 6538 resistant to chloramphenicol; assay: microbe, parasite or virus in culture; conditions: ATCC6538
Text: as §1

[4] = system: Staphylococcus aureus ATCC 6538 resistant to erythromycin; assay: microbe, parasite or virus in culture; conditions: ATCC6538
Text: as §1

[5] = system: Staphylococcus aureus ATCC 6538 resistant to kanamycin; assay: MIC against resistant Staphylococcus aureus strains (Table III); conditions: ATCC6538
Text: as §1

[6] = system: Staphylococcus aureus ATCC 6538 resistant to lincomycin; assay: microbe, parasite or virus in culture; conditions: ATCC6538
Text: as §1

[7] = system: Staphylococcus aureus ATCC 6538 resistant to penicillin; assay: microbe, parasite or virus in culture; conditions: ATCC6538
Text: as §1

[8] = system: Staphylococcus aureus ATCC 6538 resistant to rifampicin; assay: MIC against resistant Staphylococcus aureus strains (Table III); conditions: ATCC6538
Text: as §1

[9] = system: Staphylococcus aureus Tour resistant to streptomycin; assay: as above; conditions: S. aureus Tour resistant to streptomycin
Text: as §1

[10] = system: Staphylococcus aureus ATCC 6538 resistant to tetracycline; assay: as above; conditions: ATCC6538
Text: as §1

[11] = system: Staphylococcus aureus ATCC 6538 resistant to neomycin; assay: as above; conditions: S. aureus ATCC 6538 resistant to neomycin
Text: as §1

`CC[C@H](C)[C@H](N)C1=N[C@H](C(=O)N[C@@H](CC(C)C)C(=O)N[C@H](CCC(=O)O)C(=O)N[C@H](C(=O)N[C@H]2CCCCNC(=O)[C@H](CC(N)=O)NC(=O)[C@@H](CC(=O)O)NC(=O)[C@H](Cc3cnc[nH]3)NC(=O)[C@@H](Cc3ccccc3)NC(=O)[C@H]([C@@H](C)CC)NC(=O)[C@@H](CCCN)NC2=O)[C@@H](C)CC)CS1` [bacitracin] ({Ileψ(thiazoline)Cys}-L[dE]IK[dOrn]I[dF]H[dD]N; lactam 4-C) gave an MIC [1] greater than 100 µg/mL.
Work on `O=C(Cc1cccs1)N[C@@H]1C(=O)N2C(C(=O)[O-])=C(C[n+]3ccccc3)CS[C@H]12` [cephaloridine] yielded an MIC [2] greater than 100 µg/mL.
Work on `O=C(N[C@H](CO)[C@H](O)c1ccc([N+](=O)[O-])cc1)C(Cl)Cl` [chloramphenicol] yielded an MIC [3] greater than 100 µg/mL.
`CC[C@H]1OC(=O)[C@H](C)[C@@H](O[C@H]2C[C@@](C)(OC)[C@@H](O)[C@H](C)O2)[C@H](C)[C@@H](O[C@@H]2O[C@H](C)C[C@H](N(C)C)[C@H]2O)[C@](C)(O)C[C@@H](C)C(=O)[C@H](C)[C@@H](O)[C@]1(C)O` [erythromycin] showed an MIC [4] greater than 100 µg/mL.
`NC[C@H]1O[C@H](O[C@H]2[C@H](O)[C@@H](O[C@H]3O[C@H](CO)[C@@H](O)[C@H](N)[C@H]3O)[C@H](N)C[C@@H]2N)[C@H](O)[C@@H](O)[C@@H]1O` [kanamycin] gave an MIC [5] greater than 100 µg/mL.
Compound `CCC[C@@H]1C[C@@H](C(=O)N[C@@H]([C@H]2O[C@H](SC)[C@H](O)[C@@H](O)[C@H]2O)[C@@H](C)O)N(C)C1` [lincomycin] has an MIC [6] greater than 100 µg/mL.
For `CC1(C)S[C@@H]2[C@H](NC(=O)Cc3ccccc3)C(=O)N2[C@H]1C(=O)O` [penicillin], the MIC [7] was greater than 100 µg/mL.
`CO[C@H]1/C=C/O[C@@]2(C)Oc3c(C)c(O)c4c(O)c(c(/C=N/N5CCN(C)CC5)c(O)c4c3C2=O)NC(=O)/C(C)=C\C=C\[C@H](C)[C@H](O)[C@@H](C)[C@@H](O)[C@@H](C)[C@H](OC(C)=O)[C@@H]1C` [rifampicin] was tested, and the MIC [8] was greater than 100 µg/mL.
In the case of `[H]/N=C(/N)N[C@H]1[C@H](O)[C@@H](O)[C@H](O[C@@H]2O[C@@H](C)[C@](O)(C=O)[C@H]2O[C@@H]2O[C@@H](CO)[C@H](O)[C@@H](O)[C@@H]2NC)[C@@H](N/C(N)=N\[H])[C@@H]1O` [streptomycin], the MIC [9] is reported as greater than 100 µg/mL.
Work on `CN(C)C1C(=O)C(C(N)=O)=C(O)C2(O)C(=O)C3=C(O)c4c(O)cccc4C(C)(O)C3CC12` (centres unmarked) [tetracycline] yielded an MIC [10] greater than 100 µg/mL.
With neomycin the MIC [11] was greater than 100 µg/mL.
